System: diamondback moth, Plutella xylostella
Experiment: Bioassay on treated cabbage plants (track sprayer, 400 L/Ha) infested with second instar diamondback moth; synergy judged by Colby's equation
Type: in vivo
Description: The method described in Colby S. R., “Calculating Synergistic and Antagonistic Responses of Herbicide Combinations,” Weeds, 1967, 15, 20-22 was used to determine an existence of synergic effect between the inhibitor of chitin biosynthesis, type 1 compound and the pesticide (I), (II), or any agriculturally acceptable salt thereof in the formulated pesticidal composition. In this method, the percent insect control of the formulated pesticidal composition as observed in the study was compared to the “expected” percent control (E) as calculated by equation (1) (hereinafter “Colby's equation”) below:
[formula] where • X is the percentage of control with the first pesticide at a given rate (p), • Y is the percentage of control with the second pesticide at a given rate (q), and • E is the expected control by the first and second pesticide at a rate of p+q.
Bioassays were performed for different active compounds. Cabbage plants with about two to three new-growth-true leaf stage were treated with different active compounds using a track sprayer application at 400 L/Ha spray volume. Three second instar diamondback moth, Plutella xylostella, were infested onto each leaf disc. The percent control of the pesticidal composition against diamondback moth, Plutella xylostella, was determined as the “Observed” action, and compared to those obtained by using about 0.000625 weight % of compound I, and using about 0.000625 weight % of buprofezin alone. The “Colby's Expected Action” was calculated using Colby's equation as discussed previously.
Bioassays were performed wherein different active compounds were tested against diamondback moth, Plutella xylostella, using the procedure described in example 5A.
Bioassays may be performed for different active compounds against diamondback moth, Plutella xylostella, using the procedure described in example 5A. The percent control may be determined after three days after the treatment.

[1] = Example 5A, active used alone, dose rate 0.000625 weight %, diamondback moth on cabbage

CCN(C(=O)CCSCCC(F)(F)F)c1cn(-c2cccnc2)nc1Cl [Compound I, N-(3-chloro-1-(pyridin-3-yl)-1H-pyrazol-4-yl)-N-ethyl-3-((3,3,3-trifluoropropyl)thio)propanamide]
% Control Three Days After Treatment [1]: no control
% Control Three Days After Treatment (Example 5B, compound I alone, dose rate 0.000625 weight %): 0%
% Control Three Days After Treatment (Example 5B, compound I alone, dose rate 0.000625 weight %, listed as compound I): no control
% Control Three Days After Treatment (Example 5C, compound I alone, dose rate 0.0025 weight %): 0%
% Control Three Days After Treatment (Example 5C, compound I alone, dose rate 0.0025 weight %, listed as compound I): no control

CC(C)N1C(=O)N(c2ccccc2)CS/C1=N\C(C)(C)C [Buprofezin, (E,Z)-2-tert-butylimino-3-isopropyl-5-phenyl-1,3,5-thiadiazinan-4-one]
% Control Three Days After Treatment [1]: 0%
% Control Three Days After Treatment (Example 5A, active used alone, dose rate 0.000625 weight %, diamondback moth on cabbage, listed as buprofezin): no control
% Control Three Days After Treatment (Example 5B, buprofezin alone, dose rate 0.0025 weight %): 0%
% Control Three Days After Treatment (Example 5B, buprofezin alone, dose rate 0.0025 weight %, listed as buprofezin): no control
% Control Three Days After Treatment (Example 5C, buprofezin alone, dose rate 0.000625 weight %): 0%
% Control Three Days After Treatment (Example 5C, buprofezin alone, dose rate 0.000625 weight %, listed as buprofezin): no control

Source: patent US9474276B2, “Synergistic pesticidal compositions and related methods” (Dow AgroSciences LLC, priority 2013, dated 2016)
